“And” between values parts separate entries of the source, which are not always exact repeats. Identical values can stand only once.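 Test compounds were applied to cells in 96-well plates for 48 hours at 5 doses. GI50 is the concentration that inhibits growth by half. TGI: concentration producing complete growth inhibition.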

Some test systems named below: CCRF-CEM leukemia; HT29 colon; U251 CNS; MALME-3M melanoma; CAKI-1 renal; NCI-H460 lung; A549 NSCLC; ACHN renal; SF-295 CNS; EKVX NSCLC.
Common to all, as to assay: NCI tumour cell line growth inhibition, 48 h

Regarding `COc1cc(-c2oc(=O)ccc2C#Cc2ccccn2)cc(OC)c1OC`, the GI50 in the assay with CCRF-CEM leukemia was 2140 nM; with HT29 colon, 607 nM; in the assay on U251 CNS it was 3510 nM; in the assay with MALME-3M melanoma it was 14900 nM; in the assay on CAKI-1 renal, 563 nM; with NCI-H460 lung it was 2600 nM. The GI50 in the assay with A549 NSCLC is 4150 nM; in the assay on ACHN renal, 11700 nM; in the assay with SF-295 CNS it was 224 nM; in the assay on EKVX NSCLC, 8070 nM. Also, the TGI in the assay on CCRF-CEM leukemia was above 30000 nM; with HT29 colon, above 21000 nM; in the assay on U251 CNS, above 86000 nM; in the assay with MALME-3M melanoma, above 100000 nM; in the assay on CAKI-1 renal, 3730 nM; in the assay with NCI-H460 lung it was above 54200 nM. The TGI was above 100000 nM with A549 NSCLC, above 100000 nM in the assay on ACHN renal, 2010 nM in the assay on SF-295 CNS and above 100000 nM in the assay on EKVX NSCLC.

For the molecule `Cn1c(I)c(C#CCO[Si](C)(C)C(C)(C)C)c(=O)[nH]c1=O`, the GI50 in the assay with CCRF-CEM leukemia is 1920 nM; in the assay with HT29 colon, 20900 nM; in the assay on U251 CNS it was 17400 nM; in the assay on MALME-3M melanoma, 1780 nM; with CAKI-1 renal, 3290 nM; in the assay on NCI-H460 lung it was 53800 nM. Further, the GI50 with A549 NSCLC is above 100000 nM; in the assay on ACHN renal, 15900 nM; in the assay with SF-295 CNS it was above 100000 nM; in the assay on EKVX NSCLC it was 17500 nM. Further, the TGI in the assay with CCRF-CEM leukemia is 4170 nM; with HT29 colon, 39700 nM; with U251 CNS, 31900 nM; in the assay with MALME-3M melanoma it was 3850 nM; in the assay on CAKI-1 renal, 12600 nM; in the assay with NCI-H460 lung, above 100000 nM. For the same molecule, the TGI in the assay with A549 NSCLC was above 100000 nM; with ACHN renal it was 29500 nM; in the assay on SF-295 CNS, above 100000 nM; with EKVX NSCLC, 32800 nM.

On to `CCN(CC)CCC(CNc1ccnc2cc(Cl)ccc12)c1ccc(Cl)cc1` (stereo not drawn), for which the GI50 in the assay on CCRF-CEM leukemia was 1270 nM; with HT29 colon, 282 nM; in the assay on U251 CNS, 1370 nM; with MALME-3M melanoma, 1400 nM; in the assay on CAKI-1 renal it was 496 nM; in the assay with NCI-H460 lung it was 2030 nM. The GI50 in the assay on A549 NSCLC is 1640 nM; in the assay with ACHN renal it was 467 nM; in the assay with SF-295 CNS, 1020 nM; in the assay with EKVX NSCLC it was 3850 nM. Besides, the TGI is 6290 nM with CCRF-CEM leukemia; 1490 nM in the assay on HT29 colon; 2850 nM with U251 CNS; 3160 nM in the assay on MALME-3M melanoma; 2360 nM with CAKI-1 renal; 11100 nM with NCI-H460 lung. The TGI is 3960 nM in the assay on A549 NSCLC, 1780 nM in the assay on ACHN renal, 2640 nM with SF-295 CNS and 18800 nM in the assay with EKVX NSCLC.

Consider `O=C(Nc1ccn(CCO)c(=O)n1)c1ccccc1`, for which the TGI in the assay on CCRF-CEM leukemia, in the assay with HT29 colon, with U251 CNS, with MALME-3M melanoma, in the assay with CAKI-1 renal and in the assay on NCI-H460 lung was above 100000 nM in each case. In addition, the TGI in the assay with A549 NSCLC, in the assay on ACHN renal, in the assay with SF-295 CNS and with EKVX NSCLC was above 100000 nM each time.

Consider `C=C1C(=O)OC2CC(C)C(C(CC(C)=O)OC(C)=O)=CCC12` (stereo not drawn), for which the TGI in the assay with CCRF-CEM leukemia is above 35000 nM; in the assay on HT29 colon, 22000 nM; in the assay with U251 CNS, 29600 nM; in the assay on MALME-3M melanoma, 3970 nM; in the assay with CAKI-1 renal, 8050 nM; in the assay with NCI-H460 lung, 41900 nM. Besides, the TGI in the assay with A549 NSCLC is above 76200 nM; with ACHN renal it was 22400 nM; with SF-295 CNS it was 62000 nM; with EKVX NSCLC, 26600 nM.

With `Oc1ccc(Nc2ncnc3c2sc2ncccc23)cc1`, the GI50 is 30.7 nM in the assay on CCRF-CEM leukemia; 49.6 nM in the assay with HT29 colon; 26.2 nM with U251 CNS; 4930 nM in the assay on MALME-3M melanoma; below 18.5 nM in the assay on CAKI-1 renal; below 10 nM in the assay on NCI-H460 lung. In addition, the GI50 was 16.4 nM in the assay with A549 NSCLC, below 10 nM with ACHN renal, 38.9 nM in the assay with SF-295 CNS and 97 nM with EKVX NSCLC. Moreover, the TGI is above 100000 nM with CCRF-CEM leukemia; above 100000 nM in the assay on HT29 colon; above 100000 nM in the assay on U251 CNS; above 100000 nM in the assay with MALME-3M melanoma; 9210 nM in the assay with CAKI-1 renal; above 100000 nM in the assay with NCI-H460 lung. The TGI was above 100000 nM in the assay on A549 NSCLC, 1420 nM in the assay on ACHN renal, above 100000 nM with SF-295 CNS and above 100000 nM in the assay with EKVX NSCLC.

Turning to `COc1cccc2c1C(=O)c1c(O)c3c(c(O)c1C2=O)C[C@@](O)(C(=O)CO)C[C@@H]3OC1CC(N)CC(C)O1` (stereo partly drawn), the GI50 was below 12.5 nM in the assay on CCRF-CEM leukemia; 29.6 nM in the assay on HT29 colon; 22.4 nM and 31.1 nM in the assay with U251 CNS; 49.1 nM in the assay on MALME-3M melanoma; 9.36 nM and 8.12 nM and 26.3 nM with CAKI-1 renal; 9.92 nM and 10.7 nM and 31.5 nM with A549 NSCLC. For the same molecule, the GI50 is 17.5 nM in the assay with ACHN renal, 18 nM with SF-295 CNS and 152 nM with EKVX NSCLC. Besides, the TGI with CCRF-CEM leukemia was 374 nM and 159 nM; in the assay with HT29 colon, 1100 nM and 809 nM; with U251 CNS, 2200 nM and 873 nM; in the assay on MALME-3M melanoma it was 256 nM and 110 nM; in the assay with CAKI-1 renal it was 119 nM and 377 nM; in the assay with NCI-H460 lung, 421 nM and 192 nM. Besides, the TGI is 289 nM in the assay with ACHN renal; 208 nM and 130 nM in the assay with SF-295 CNS; 839 nM and 610 nM in the assay on EKVX NSCLC.

Regarding `O=C(Nc1ccc(Br)cc1F)c1cc(F)ccc1O`, the GI50 in the assay on CCRF-CEM leukemia is 2400 nM; with HT29 colon, 3190 nM; in the assay on U251 CNS, 609 nM; in the assay on MALME-3M melanoma, 335 nM; with CAKI-1 renal, 314 nM; in the assay on NCI-H460 lung, 491 nM. The GI50 was 1690 nM in the assay on A549 NSCLC, 499 nM with ACHN renal, 1760 nM with SF-295 CNS and 1300 nM in the assay with EKVX NSCLC. Besides, the TGI with CCRF-CEM leukemia is 13900 nM; in the assay on HT29 colon, above 36700 nM; in the assay with U251 CNS it was above 100000 nM; with MALME-3M melanoma, 1530 nM; in the assay on CAKI-1 renal, 2620 nM; in the assay with NCI-H460 lung it was 9750 nM. Moreover, the TGI was above 100000 nM with A549 NSCLC, 11300 nM with ACHN renal, 3420 nM with SF-295 CNS and 7380 nM in the assay with EKVX NSCLC.

The values above are taken from PubChem BioAssay (NCI).
